Assay results: ChEMBL document CHEMBL1122691, “Development of an affinity ligand for purification of alpha 2-adrenoceptors from human platelet membranes” (J Med Chem, 1984)

What was measured:
[1] = target: T1, Adrenergic receptor alpha-2 (Homo sapiens, UniProt P08913+P18825+P18089); test: Binding affinity against alpha-2-adrenergic receptor using 10 nM [3H]yohimbine in preparations in human platelet membranes from three separate experiments using 10 inhibitor concentrations; format: cell membranes
T1 sequence (P08913 whole entry): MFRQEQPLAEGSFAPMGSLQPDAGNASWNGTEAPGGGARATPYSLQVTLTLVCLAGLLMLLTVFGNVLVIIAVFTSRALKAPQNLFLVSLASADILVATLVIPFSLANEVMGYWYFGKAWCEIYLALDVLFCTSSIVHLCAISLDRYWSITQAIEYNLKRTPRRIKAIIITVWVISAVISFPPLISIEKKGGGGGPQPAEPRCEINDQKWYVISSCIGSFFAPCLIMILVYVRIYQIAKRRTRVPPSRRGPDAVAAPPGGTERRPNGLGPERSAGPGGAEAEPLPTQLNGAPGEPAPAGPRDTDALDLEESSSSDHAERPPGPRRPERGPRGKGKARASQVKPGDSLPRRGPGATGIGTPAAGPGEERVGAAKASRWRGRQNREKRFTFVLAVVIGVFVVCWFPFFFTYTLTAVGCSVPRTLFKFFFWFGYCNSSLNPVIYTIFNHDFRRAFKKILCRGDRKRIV
T1 sequence (P18825 whole entry): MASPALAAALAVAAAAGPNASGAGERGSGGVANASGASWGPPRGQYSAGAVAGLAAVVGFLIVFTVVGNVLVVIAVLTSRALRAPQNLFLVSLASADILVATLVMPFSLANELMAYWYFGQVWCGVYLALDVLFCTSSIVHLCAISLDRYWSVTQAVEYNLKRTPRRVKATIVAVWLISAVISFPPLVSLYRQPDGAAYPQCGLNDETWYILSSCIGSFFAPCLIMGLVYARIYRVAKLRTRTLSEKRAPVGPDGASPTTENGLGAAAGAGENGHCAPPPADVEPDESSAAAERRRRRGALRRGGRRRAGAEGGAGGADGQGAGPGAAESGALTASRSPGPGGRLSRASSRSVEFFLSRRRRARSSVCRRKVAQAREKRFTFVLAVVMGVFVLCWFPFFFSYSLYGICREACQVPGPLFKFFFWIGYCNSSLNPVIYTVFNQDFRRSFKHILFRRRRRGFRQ
T1 sequence (P18089 whole entry): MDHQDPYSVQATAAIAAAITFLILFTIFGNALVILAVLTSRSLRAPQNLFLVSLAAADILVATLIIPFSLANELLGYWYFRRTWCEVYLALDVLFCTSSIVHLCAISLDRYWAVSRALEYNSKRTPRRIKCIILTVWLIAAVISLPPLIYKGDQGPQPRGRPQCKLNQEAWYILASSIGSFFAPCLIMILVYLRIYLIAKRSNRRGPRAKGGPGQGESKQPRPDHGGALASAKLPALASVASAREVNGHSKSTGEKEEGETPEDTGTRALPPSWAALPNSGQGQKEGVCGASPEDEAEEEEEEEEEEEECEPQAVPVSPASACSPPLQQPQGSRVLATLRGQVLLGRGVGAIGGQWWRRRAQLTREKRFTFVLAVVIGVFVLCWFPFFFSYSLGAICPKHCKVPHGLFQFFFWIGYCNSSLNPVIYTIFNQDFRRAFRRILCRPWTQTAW

[2] = tested on: Adrenergic receptor alpha-2 (Cavia porcellus); conditions: Cardiac atrium
[3] = target: T1, Adrenergic receptor alpha-2; format: cell membranes
[4] = target: T1, Adrenergic receptor alpha-2; test: Binding affinity against alpha-2-adrenergic receptor using 10 nM [3H]yohimbine in human platelet membranes from four to five separate experiments using 12 inhibitor concentrations; format: cell membranes

SMILES	Ki [1] [nM]	K beta [2] [nM]	Ki [3] [nM]	Ki [4] [nM]
C=CCOc1ccc2c(c1)CCNCC2	232	–	–	–
C=CCN1CCc2cccc(Cl)c2CC1	–	60	6.1	–
C=CCOc1ccc(Cl)c2c1CCN(C)CC2	–	150	–	48
C=CCOc1cccc2c1CCN(C)CC2	–	206	338	–
